We go through 12 compounds from ChEMBL document CHEMBL1201862, “PubChem BioAssay data set” (2004).

Some test systems named below: MCF7; TK-10; K562; IGROV-1; NCI-H23; HT-29; A549; ACHN; HOP-92; SN12C; NCI-H522; 786-0; PC-3; HCT-116; SF-295; Hs-578T; NCI-H460; DU-145; RXF 393; MDA-MB-231.
Common to all, as to test: growth of human tumour cells (NCI), 48 h

The structures appear in SMILES notation.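 Exposure lasted 48 hours, with cells grown in 96-well plates and compounds tested at five concentrations. GI50 is the concentration that inhibits growth by half.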 Calls of active or inactive are those of the source. No stated cut-off is given here; in the data, active = GI50 up to about 1.1 µM and inactive = higher. Bounds are passed on as bounds.

In the case of `CN(C)c1nncc2[nH]nnc12`, the GI50 in the experiment with MCF7, in the experiment with TK-10, with K562, in the experiment on IGROV-1, with NCI-H23 and with HT-29 was > 100 µM (inactive) in each case. In addition, the GI50 with A549, with ACHN, with HOP-92, with SN12C, in the experiment on NCI-H522 and in the experiment on 786-0 was > 100 µM (inactive) throughout. Moreover, the GI50 in the experiment on PC-3, in the experiment with HCT-116 and with SF-295 was > 100 µM (inactive) in each case.

Regarding `Cc1cc(C)c(S(=O)(=O)N2CCN(S(=O)(=O)c3c(C)cc(C)cc3C)OCCCCCO2)c(C)c1`, the GI50 in the experiment on MCF7, in the experiment on TK-10, in the experiment with K562, in the experiment with IGROV-1, with NCI-H23 and in the experiment with Hs-578T was > 100 µM (inactive) each time. The GI50 with HT-29 was > 100 µM (inactive); with NCI-H460 it was > 100 µM (inactive); with A549 it was > 100 µM (inactive); in the experiment with ACHN it was > 100 µM (inactive); in the experiment with HOP-92 it was 62.1 µM (inactive); in the experiment on SN12C, > 100 µM (inactive). The GI50 was > 100 µM (inactive) in the experiment on DU-145; > 100 µM (inactive) in the experiment with NCI-H522; > 100 µM (inactive) with 786-0; 6.22 µM (inactive) with PC-3; > 100 µM (inactive) in the experiment on HCT-116; > 100 µM (inactive) with SF-295.

On to `C=CC(OCC)(OCC)OCC`, for which the GI50 in the experiment on TK-10, with K562, in the experiment on IGROV-1, with NCI-H23, in the experiment with HT-29 and with NCI-H460 was > 100 µM (inactive) throughout. Further, the GI50 with RXF 393, in the experiment with A549, with ACHN, with HOP-92, with SN12C and in the experiment with NCI-H522 was > 100 µM (inactive) each time. For the same compound, the values for the GI50 in the experiment on 786-0, in the experiment on HCT-116 and in the experiment on SF-295 were 23.5 µM (inactive), 20.6 µM (inactive) and > 100 µM (inactive), respectively.

Turning to `COC(=O)[C@H](C)[C@H]1CC[C@@](C)([C@H]2CC3C(C)(C)[C@H]4CCC(C)=C[C@H]4C[C@@]3(C)O2)OO1` (stereo not given in full), the GI50 in the experiment on TK-10 is 15.3 µM (inactive); in the experiment on K562 it was 6.21 µM (inactive); in the experiment with IGROV-1, 5.69 µM (inactive); with NCI-H23, 7.6 µM (inactive); in the experiment with HT-29 it was 13.5 µM (inactive); with NCI-H460, 2.05 µM (inactive). Further, the GI50 is > 10 µM (inactive) in the experiment on RXF 393; 8.24 µM (inactive) in the experiment with A549; 10.4 µM (inactive) with ACHN; 2.86 µM (inactive) in the experiment with HOP-92; 11.1 µM (inactive) in the experiment with SN12C; 1.66 µM (inactive) with NCI-H522. The GI50 in the experiment on 786-0 was 3.33 µM (inactive); in the experiment with HCT-116, 10.5 µM (inactive); with SF-295 it was 14.7 µM (inactive).

Regarding `NC(=O)C12CCC1C1CCCCC12N1CCOCC1` (stereo not given), the GI50 in the experiment on TK-10, in the experiment with K562, in the experiment on IGROV-1, in the experiment on NCI-H23, in the experiment with HT-29 and in the experiment with NCI-H460 was > 100 µM (inactive) in each case. The GI50 in the experiment with RXF 393, in the experiment with A549, in the experiment with ACHN, in the experiment on HOP-92, in the experiment on SN12C and with NCI-H522 was > 100 µM (inactive) throughout. For the same compound, the GI50 in the experiment with 786-0, in the experiment with HCT-116 and with SF-295 was > 100 µM (inactive) throughout.

Take `Cc1ccc(S(=O)(=O)N2CCC(=O)c3cc(Br)ccc32)cc1`: the GI50 was 4.45 µM (inactive) with MCF7; 10.7 µM (inactive) in the experiment on TK-10; 4.57 µM (inactive) with K562; 6.1 µM (inactive) in the experiment on IGROV-1; 19.2 µM (inactive) in the experiment with NCI-H23; 6.25 µM (inactive) with HT-29. Moreover, the GI50 is 6.44 µM (inactive) in the experiment on MDA-MB-231; 19.3 µM (inactive) with NCI-H460; 12.5 µM (inactive) in the experiment on RXF 393; 13.6 µM (inactive) in the experiment with A549; 16.8 µM (inactive) in the experiment with ACHN; 18.6 µM (inactive) in the experiment on HOP-92. Also, the GI50 with SN12C is 12.9 µM (inactive); in the experiment with DU-145, 8.67 µM (inactive); with NCI-H522 it was 7.93 µM (inactive); with 786-0, 10.1 µM (inactive); in the experiment on PC-3 it was 6.01 µM (inactive); in the experiment on HCT-116 it was 4.72 µM (inactive). In addition, the GI50 in the experiment on SF-295 was 10.1 µM (inactive).

Regarding `NS(=O)(=O)c1ccc(NC(=O)Cc2nc3ccccc3s2)cc1`, the GI50 in the experiment with TK-10 was 24.1 µM (inactive); in the experiment on K562, 23.6 µM (inactive); in the experiment on IGROV-1, 15.7 µM (inactive); with NCI-H23 it was 15.9 µM (inactive); in the experiment on HT-29, 18.3 µM (inactive); in the experiment on NCI-H460, 17.5 µM (inactive). In addition, the GI50 in the experiment with RXF 393 is 18.6 µM (inactive); in the experiment on A549 it was 20.6 µM (inactive); with ACHN, 15.5 µM (inactive); with HOP-92 it was 16.2 µM (inactive); in the experiment on SN12C, 17.2 µM (inactive); in the experiment with NCI-H522 it was 18.1 µM (inactive). In addition, the GI50 in the experiment with 786-0 was 19.4 µM (inactive); with HCT-116 it was 16.6 µM (inactive); in the experiment with SF-295, 19 µM (inactive).

Consider `Cc1cn2c(=O)c3ncn(C4OC(CO)C(O)C4O)c3n(C)c2n1` (stereo not given), for which the GI50 in the experiment with TK-10, with K562, with IGROV-1, in the experiment with NCI-H23, in the experiment with HT-29 and in the experiment with NCI-H460 was > 100 µM (inactive) in each case. Further, the GI50 in the experiment on RXF 393, with A549, with ACHN, in the experiment with HOP-92, with SN12C and with NCI-H522 was > 100 µM (inactive) throughout. Besides, the GI50 in the experiment with 786-0, in the experiment on HCT-116 and in the experiment on SF-295 was > 100 µM (inactive) each time.

Regarding `NC1C/C(=N\O)c2c(Cl)sc(Cl)c21` (stereo not given), the GI50 with MCF7 was 11 µM (inactive); in the experiment with TK-10, 17.5 µM (inactive); in the experiment with K562 it was 43.2 µM (inactive); in the experiment on IGROV-1, 17 µM (inactive); with NCI-H23, 17.1 µM (inactive); in the experiment with Hs-578T, 59.3 µM (inactive). Besides, the GI50 in the experiment with HT-29 was 23.1 µM (inactive); in the experiment on NCI-H460 it was 20.4 µM (inactive); with A549, 29.3 µM (inactive); in the experiment on ACHN, 21.8 µM (inactive); in the experiment with HOP-92, 22.9 µM (inactive); with SN12C, 19.1 µM (inactive). Further, the GI50 is 15.1 µM (inactive) in the experiment on DU-145; 18.1 µM (inactive) in the experiment with 786-0; 20.8 µM (inactive) in the experiment with PC-3; 3.96 µM (inactive) in the experiment with HCT-116; 28.1 µM (inactive) in the experiment with SF-295.

On to `Nn1c(Nc2ccc(S(N)(=O)=O)cc2)nnc(/C=C/c2c(O)ccc3ccccc23)c1=O`, for which the GI50 in the experiment on MCF7 is 17.5 µM (inactive); in the experiment on K562 it was 17 µM (inactive); in the experiment on IGROV-1, 0.128 µM (active); with NCI-H23, 4.07 µM (inactive); in the experiment with Hs-578T, 31 µM (inactive); in the experiment with HT-29, 19.9 µM (inactive). The GI50 in the experiment on NCI-H460 is 26.7 µM (inactive); in the experiment with A549 it was 28.1 µM (inactive); in the experiment with ACHN, 30.3 µM (inactive); in the experiment with SN12C, 11.6 µM (inactive); in the experiment on DU-145, 26.3 µM (inactive); with NCI-H522 it was 13.5 µM (inactive). Further, the GI50 was 24.4 µM (inactive) with 786-0, 47.2 µM (inactive) with PC-3, 16.3 µM (inactive) in the experiment with HCT-116 and 24.3 µM (inactive) in the experiment on SF-295.

For the compound `CC(=O)C(CN(C)Cc1ccccc1)C(c1ccccc1)c1c(O)c2ccccc2oc1=O` (stereo not given), the GI50 in the experiment with TK-10, with K562, in the experiment with IGROV-1, with NCI-H23, in the experiment on HT-29 and with NCI-H460 was > 100 µM (inactive) throughout. Moreover, the GI50 with RXF 393 was > 100 µM (inactive); in the experiment on A549, > 100 µM (inactive); in the experiment with ACHN it was > 100 µM (inactive); in the experiment on HOP-92, 31.9 µM (inactive); in the experiment with SN12C, > 100 µM (inactive); in the experiment with NCI-H522, 80.4 µM (inactive). Besides, the GI50 in the experiment on 786-0, in the experiment with HCT-116 and in the experiment with SF-295 was > 100 µM (inactive) throughout.

Turning to `CCN(CC)[C@@H]1c2cc3c(cc2C(c2cc(OC)c(O)c(OC)c2)C2C(=O)CO[C@@H]21)OCO3` (stereo not given in full), the GI50 in the experiment on TK-10, in the experiment on K562, with IGROV-1, in the experiment with NCI-H23, in the experiment on HT-29 and in the experiment on NCI-H460 was > 100 µM (inactive) each time. The GI50 in the experiment with RXF 393 was 65.5 µM (inactive); in the experiment on A549, > 100 µM (inactive); in the experiment on ACHN, > 100 µM (inactive); with HOP-92, > 100 µM (inactive); with SN12C it was > 100 µM (inactive); in the experiment on NCI-H522, > 100 µM (inactive). The GI50 in the experiment on 786-0, in the experiment with HCT-116 and in the experiment with SF-295 was > 100 µM (inactive) each time.
